The text below walks through data of ChEMBL document CHEMBL1139708, “Sesquiterpene lactones are potent and irreversible inhibitors of the antibacterial target enzyme MurA” (Bioorg Med Chem Lett, 2006).

The target of assay [1] is UDP-N-acetylglucosamine 1-carboxyvinyltransferase (Escherichia coli K-12, UniProt P0A749). The assay is described as follows: Inhibition of Escherichia coli K12 Mur A in presence of UNAG.
The test system of assay [2] is UDP-N-acetylglucosamine 1-carboxyvinyltransferase (Escherichia coli K-12), P0A749 [C115D]. The assay is described as follows: Inhibition of Escherichia coli K12 Mur A C115D at 50 uM in presence of UNAG.
Chain of UDP-N-acetylglucosamine 1-carboxyvinyltransferase (Escherichia coli K-12), P0A749 [C115D] (P0A749 whole entry C115D): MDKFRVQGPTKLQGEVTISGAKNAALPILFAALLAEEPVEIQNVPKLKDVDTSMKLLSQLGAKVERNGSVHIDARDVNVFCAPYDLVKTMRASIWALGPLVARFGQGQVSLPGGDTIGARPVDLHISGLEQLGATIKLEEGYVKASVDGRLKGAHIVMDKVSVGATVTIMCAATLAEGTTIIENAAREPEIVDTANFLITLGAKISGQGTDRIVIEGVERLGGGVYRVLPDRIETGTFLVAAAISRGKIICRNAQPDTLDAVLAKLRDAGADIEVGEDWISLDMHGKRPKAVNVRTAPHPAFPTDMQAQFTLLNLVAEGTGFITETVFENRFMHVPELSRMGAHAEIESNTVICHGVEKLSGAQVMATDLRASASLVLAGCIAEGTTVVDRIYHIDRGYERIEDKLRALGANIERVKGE
Assay [3] deals with UDP-N-acetylglucosamine 1-carboxyvinyltransferase (Pseudomonas aeruginosa (strain ATCC 15692 / PAO1 / 1C / PRS 101 / LMG12228), UniProt Q9HVW7). The assay is described as follows: Inhibition of Pseudomonas aeruginosa PAO1293 MurA in presence of UNAG.
Chain of UDP-N-acetylglucosamine 1-carboxyvinyltransferase (Pseudomonas aeruginosa (strain ATCC 15692 / PAO1 / 1C / PRS 101 / LMG12228), UniProt Q9HVW7) (Q9HVW7 whole entry): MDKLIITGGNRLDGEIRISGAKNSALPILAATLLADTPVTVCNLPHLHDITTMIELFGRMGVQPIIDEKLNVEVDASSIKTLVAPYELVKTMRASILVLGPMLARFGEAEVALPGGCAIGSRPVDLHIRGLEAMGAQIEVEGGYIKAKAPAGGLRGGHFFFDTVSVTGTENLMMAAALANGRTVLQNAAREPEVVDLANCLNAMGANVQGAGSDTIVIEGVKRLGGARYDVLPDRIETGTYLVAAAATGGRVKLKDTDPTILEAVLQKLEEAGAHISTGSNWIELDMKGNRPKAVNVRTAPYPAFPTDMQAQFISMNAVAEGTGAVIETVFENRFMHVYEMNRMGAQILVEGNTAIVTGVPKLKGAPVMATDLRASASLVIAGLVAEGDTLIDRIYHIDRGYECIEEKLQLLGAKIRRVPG
Assay [4] can be described thus: Inhibition of MurA at 5 uM. Conditions: TDE = time-dependent effect.
A short description of assay [5]: Inhibition of MurA at 10 uM. Conditions: TDE = time-dependent effect.

The source made the active and inactive calls. The rule behind the calls is not given here.

For orientation: IC50 means the midpoint of a concentration-inhibition curve.

Chain of UDP-N-acetylglucosamine 1-carboxyvinyltransferase (Escherichia coli K-12, UniProt P0A749) (P0A749 whole entry): as the sequence (P0A749 whole entry C115D) above, with D115C counted along it

In the case of `C=C1C(=O)O[C@@H]2[C@@H]1CC[C@]1(C)CCC=C(C)[C@@H]21`, the IC50 in assay [1] and in assay [3] was above 50 µM throughout. For the same compound, the outcome in assay [2] was inactive.

For the compound `C=C1C(=O)O[C@@H]2C3O[C@]3(C)CC/C=C(\C)CC[C@@H]12` (some centres undefined), the IC50 was above 50 µM in assay [1] and 27.8 µM in assay [3]. Besides, the outcome in assay [2] was inactive.

For `C=C1C(=O)O[C@@H]2/C=C(\C)CC/C=C(\C)CC[C@@H]12` (stereo in doubt; 7), the outcome in assay [2] was inactive.

As for `C=C1C(=O)O[C@@H]2/C=C(\C)CC/C=C(\C)CC[C@@H]12` (stereo in doubt; 7) [COSTUNOLIDE], the IC50 in assay [1] and in assay [3] was above 50 µM throughout.

Consider `C=C1C(=O)O[C@@H]2/C=C(\C)CC/C=C(\C)CC[C@@H]12` (stereo in doubt; 10), for which the result in assay [2] was inactive.

Consider `C=C1C(=O)O[C@@H]2/C=C(\C)CC/C=C(\C)CC[C@@H]12` (stereo in doubt; 10) [COSTUNOLIDE], for which the IC50 in assay [1] and in assay [3] was above 50 µM throughout.

With `C=C1C(=O)O[C@@H]2/C=C(\CO)CC/C=C(\C)C[C@H](OC(=O)C(=C)[C@H](O)CO)[C@@H]12` [CNICIN], the figures for the IC50 in assay [1] and in assay [3] were 16.7 µM and 10.3 µM, respectively. Further, in assay [2], the outcome was inactive. In addition, in assay [4], the Activity entry is “tde”.

For the compound `C=C(CO)C(=O)O[C@H]1CC(=C)[C@@H]2C[C@H](O)C(=C)[C@@H]2[C@H]2OC(=O)C(=C)[C@@H]21` [CYNAROPICRIN], the results for the IC50 in assay [1] and in assay [3] were 19.5 µM and 12.1 µM, respectively. The outcome in assay [2] was inactive. Moreover, the Activity result in assay [4] was “tde”.

Regarding `C=C1CC[C@H]2C(=C)CC[C@H]3C(=C)C(=O)O[C@@H]3[C@@H]12` [DEHYDROCOSTUSLACTONE], the concentration for half-maximal inhibition (IC50) in assay [1] and in assay [3] was above 50 µM each time. Moreover, in assay [2], the outcome was inactive.

Regarding `C=C1C(=O)O[C@@H]2/C=C(\C)CC/C=C(/C)C[C@@H](OC(=O)/C(=C/CO)CO)[C@@H]12` [EUPATORIOPICRIN], the IC50 in assay [1] amounted to 32.7 µM; in assay [3], 19.8 µM. In assay [2], the outcome was inactive. In addition, in assay [5], the Activity entry is “tde”.

Consider `C[C@@H]1O[C@@H]1P(=O)(O)O` [FOSFOMYCIN], for which the IC50 in assay [1] stood at 0.118 µM; in assay [3], 10.5 µM. Besides, the result in assay [2] was inactive. The Activity result in assay [4] is “tde”.

Consider `C=C1C(=O)O[C@@H]2C[C@@]3(C)CCC[C@H](C)C3=C[C@H]12` [HELENINE], for which the 50% inhibitory concentration (IC50) in assay [1] and in assay [3] was above 50 µM each time. Besides, in assay [2], the result was inactive.
